The text below walks through data of patent US5126356A, “Piperidine compounds” (Adir et Compagnie, priority 1989, dated 1992).

One assay concerns the target Beta adrenergic β. In words: Binding to neurotransmitter receptors: beta adrenergic ([3H] DHA). Conditions: read-out: K0.5.
The subject of assay [1] is cardiac cells. In words: Oxidative necrosis of cardiac cells induced by hypoxanthine/xanthine oxidase (α-HBDH release). The class given is cell-based, rat. Conditions: for activity at 10 µM / activity at 1 µM / activity at 0.1 µM / inhibition at 1 µM: Rattus norvegicus, Cardiomyocyte, 4 h; for activity at 10 µM / activity at 1 µM / activity at 0.1 µM / necrosis index: XO + HX, control XO + HX = 100, mean ±SD; for activity at 10 µM / activity at 1 µM / activity at 0.1 µM: read-out: necrosis index; for inhibition at 1 µM: from 10^-6 M, read-out: reduction of oxidative necrosis of the cardiomyocytes; for necrosis index: 240 min. As to the method:
Cardiac cells of newly born rats are used between the 5th and 7th day following culturing. Oxidative necrosis is induced by the enzymatic production system of hypoxanthine free radicals (HX, 1 mM) and xanthine oxidase (XO, 10 mU/ml). The necrosis is evaluated 4 hours after the addition of XO/HX by measuring by spectrophotometry the cytosolic α-hydroxybutyrate dehydrogenase (α-HBDH) activity released into the supernatant liquor. Two reference molecules (Probucol, vitamin E) and two molecules representative of the present invention (corresponding to Examples 13 and 19) were tested. The cells are treated with the molecules 16 hours and 1 hour before the start of the experiment after renewal of the medium. At the start of the experiment, the treatment is repeated one last time.
The necrosis index 100 corresponds to the release of 46.7±5.3% of the cytosolic content of α-HBDH into the supernatant liquor in 4 hours.
The results are expressed as the mean ±SD (2<n≤4, 3 to 4 repetitions per experiment).

A further assay relates to human LDL's. In words: Oxidative modification of human LDL's by copper sulphate (MDA production). The class given is biochemical. Conditions: for IC50: read-out: IC50 (reduction of MDA production by 50%), Cu2+ (copper sulphate 5×10^-6 M), 24 hours. The procedure:
Human LDL's are incubated for 24 hours in the presence of copper sulphate (5×10^-6 M) and in the absence or in the presence of the test compounds (10^-7 M to 10^-4 M).
After incubation, the peroxidation of the LDL's is evaluated by agar gel electrophoresis and by the formation of one of the products of lipid peroxidation: malondialdehyde (MDA) (Parthasarathy S., Young S. G., Witztum J. L., Pittman R. C. and Steinberg D.; J. Clin. Invest. 77, 641-644, 1986).

Assay [2] concerns the target type L calcium channels. In words: Binding: displacement of [3H] D888 at the Ca2+ channel. Particulars: read-out: K0.5 (50% of specifically fixed radioactivity displaced). Background: In a radioligand displacement assay an active substance lowers the binding of a labelled ligand.
The target of the next assay is T1, type L Ca^2+ channel (Rattus norvegicus, UniProt P22002).
T1 construct: cell lines from the aorta of newly born rats; host or cells: A7 r5
In words: Inhibition of 45Ca2+ influx through the Ca2+ channel in A7 r5 cells. Format: cell-based. Particulars: 45Ca2+ influx, A7 r5 cells; read-out: K0.5 (50% of 45Ca2+ influx inhibited).

Assay [3] deals with cardiac cells. In words: Protection of cardiac cells from necrosis induced by intracellular acidosis (αHBDH release). Format: cell-based, rat. Particulars: Rattus norvegicus, Cardiomyocyte. As to the method: a) Cardiac cells: the cardiac cells are prepared from the hearts of newly born (3 days) Wistar rats in accordance with the technique of RENAUD JF., MEAUX JP., ROMEY G., SCHMID A., LAZDUNSKI M., Activation of the voltage-dependent Ca^2+ channels in rat heart cells by dihydropyridine derivative--Biochem. Biophys. Res. Commun., 125, 405-412 (1984).
The cardiomyocytes are isolated from the ventricles by enzymatic dissociation and cultured at 185,000 cells/cm^2. The cells are kept at 37° C. under an air/CO2 atmosphere (95 V/5 V) saturated with water. The cardiomyocytes are used between the 3rd and 8th day following culturing.
Intracellular acidosis is induced in accordance with the conditions published by RENAUD JF., Internal pH Na^+ and Ca^2+ regulation by trimetazidine during cardiac cell acidosis. Cardiovasc. Drugs and Ther., 1, 667-686 (1988) in the presence or absence of the products to be tested. Cellular necrosis is evaluated by measuring by spectrophotometry using the Boerhinger 124800 kit the kinetics of the release of a cytosolic enzyme α-hydroxybutyrate dehydrogenase (αHBDH) into the extracellular medium.
The signal measured corresponds to the amplitude of the necrosis induced by the acidosis. The values are the means ±SD. The number of experiments is indicated in parentheses.

The target in assay [4] is T2, type L calcium channels (Oryctolagus cuniculus, UniProt P07293).
T2 construct: microsomal fractions enriched with type L calcium channels; from tissue; host or cells: microsomal fractions
In words: Binding: displacement of [3H] PN 200-110 at the Ca2+ channel.

Another assay addresses Alpha adrenergic α2. In words: Binding to neurotransmitter receptors: alpha2 adrenergic ([3H] Rauwolscine). Conditions: α2, [3H] Rauwolscine; read-out: K0.5.
[5] abbreviates: read-out: amplitude of the necrosis induced by the acidosis.

Where a name gives a salt, the structure may show the parent alone. Some results are limits rather than exact numbers.

T2 sequence (P07293 whole entry): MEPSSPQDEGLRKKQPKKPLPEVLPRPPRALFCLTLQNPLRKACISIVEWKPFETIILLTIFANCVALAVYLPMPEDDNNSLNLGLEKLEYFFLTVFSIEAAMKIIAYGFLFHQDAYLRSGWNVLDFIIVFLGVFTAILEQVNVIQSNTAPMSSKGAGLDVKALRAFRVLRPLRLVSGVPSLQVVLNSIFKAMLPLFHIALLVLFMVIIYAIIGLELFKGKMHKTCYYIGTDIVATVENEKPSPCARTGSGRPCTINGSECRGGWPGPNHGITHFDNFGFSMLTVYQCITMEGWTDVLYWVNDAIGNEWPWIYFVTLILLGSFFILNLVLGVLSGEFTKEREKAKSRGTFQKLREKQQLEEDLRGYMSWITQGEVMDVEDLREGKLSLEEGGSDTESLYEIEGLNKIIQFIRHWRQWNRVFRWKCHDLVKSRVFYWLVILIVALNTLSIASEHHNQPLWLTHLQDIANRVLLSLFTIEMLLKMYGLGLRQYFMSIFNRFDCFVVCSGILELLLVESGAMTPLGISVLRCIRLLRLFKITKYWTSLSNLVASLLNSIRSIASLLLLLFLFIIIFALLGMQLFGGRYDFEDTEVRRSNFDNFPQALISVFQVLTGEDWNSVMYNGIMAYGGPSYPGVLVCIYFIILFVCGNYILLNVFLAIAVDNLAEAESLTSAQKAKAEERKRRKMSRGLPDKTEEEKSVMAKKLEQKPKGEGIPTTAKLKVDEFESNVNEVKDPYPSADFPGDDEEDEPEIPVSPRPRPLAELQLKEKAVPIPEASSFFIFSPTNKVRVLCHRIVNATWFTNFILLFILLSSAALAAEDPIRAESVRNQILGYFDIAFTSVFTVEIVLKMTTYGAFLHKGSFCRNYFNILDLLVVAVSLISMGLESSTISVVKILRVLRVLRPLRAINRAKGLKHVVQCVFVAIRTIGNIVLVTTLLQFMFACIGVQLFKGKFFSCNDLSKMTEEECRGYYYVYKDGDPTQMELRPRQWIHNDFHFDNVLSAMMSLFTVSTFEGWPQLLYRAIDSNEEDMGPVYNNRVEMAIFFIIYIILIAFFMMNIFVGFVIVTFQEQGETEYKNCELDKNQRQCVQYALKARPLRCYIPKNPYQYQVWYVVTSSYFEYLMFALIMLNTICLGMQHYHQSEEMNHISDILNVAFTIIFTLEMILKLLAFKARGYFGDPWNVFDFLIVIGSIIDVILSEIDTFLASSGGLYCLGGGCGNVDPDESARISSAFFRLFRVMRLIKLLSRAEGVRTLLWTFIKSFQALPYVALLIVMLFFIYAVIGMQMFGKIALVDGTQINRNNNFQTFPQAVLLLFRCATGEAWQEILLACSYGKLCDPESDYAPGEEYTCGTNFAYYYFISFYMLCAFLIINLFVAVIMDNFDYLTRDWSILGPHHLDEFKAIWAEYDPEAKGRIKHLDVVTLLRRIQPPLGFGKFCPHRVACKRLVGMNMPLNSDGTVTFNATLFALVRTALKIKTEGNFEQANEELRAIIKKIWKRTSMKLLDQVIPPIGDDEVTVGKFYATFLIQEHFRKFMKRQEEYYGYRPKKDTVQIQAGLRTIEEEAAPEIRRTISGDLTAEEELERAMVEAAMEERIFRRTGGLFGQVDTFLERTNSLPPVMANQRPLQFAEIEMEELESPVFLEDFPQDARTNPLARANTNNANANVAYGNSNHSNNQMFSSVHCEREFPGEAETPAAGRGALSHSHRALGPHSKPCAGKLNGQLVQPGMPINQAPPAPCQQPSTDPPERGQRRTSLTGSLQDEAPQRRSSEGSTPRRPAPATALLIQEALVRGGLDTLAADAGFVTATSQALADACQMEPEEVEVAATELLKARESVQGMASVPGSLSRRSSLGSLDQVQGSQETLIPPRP
T2 sequence (P13806 27-960 partner limits assumed): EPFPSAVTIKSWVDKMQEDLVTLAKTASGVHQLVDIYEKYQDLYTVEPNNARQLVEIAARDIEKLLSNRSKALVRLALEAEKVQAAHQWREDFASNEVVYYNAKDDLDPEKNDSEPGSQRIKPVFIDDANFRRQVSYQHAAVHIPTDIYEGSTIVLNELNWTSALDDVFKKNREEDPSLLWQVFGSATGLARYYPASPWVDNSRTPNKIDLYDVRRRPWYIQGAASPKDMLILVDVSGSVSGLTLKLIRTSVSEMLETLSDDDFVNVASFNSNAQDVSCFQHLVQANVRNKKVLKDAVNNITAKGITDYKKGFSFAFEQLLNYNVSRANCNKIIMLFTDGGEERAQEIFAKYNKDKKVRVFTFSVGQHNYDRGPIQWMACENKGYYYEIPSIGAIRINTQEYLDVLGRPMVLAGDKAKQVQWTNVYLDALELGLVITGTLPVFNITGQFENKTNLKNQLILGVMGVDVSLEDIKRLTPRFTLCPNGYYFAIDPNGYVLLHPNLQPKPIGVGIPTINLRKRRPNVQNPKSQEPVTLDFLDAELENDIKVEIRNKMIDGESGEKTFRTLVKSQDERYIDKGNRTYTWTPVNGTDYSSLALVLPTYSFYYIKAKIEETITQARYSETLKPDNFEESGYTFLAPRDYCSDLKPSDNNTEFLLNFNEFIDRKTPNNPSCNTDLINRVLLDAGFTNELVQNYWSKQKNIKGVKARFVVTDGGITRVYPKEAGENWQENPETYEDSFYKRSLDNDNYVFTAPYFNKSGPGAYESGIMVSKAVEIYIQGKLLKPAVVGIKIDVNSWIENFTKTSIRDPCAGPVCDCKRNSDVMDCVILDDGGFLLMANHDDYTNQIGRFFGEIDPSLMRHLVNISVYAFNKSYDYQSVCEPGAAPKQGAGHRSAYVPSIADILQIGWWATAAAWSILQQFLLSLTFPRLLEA
T2 sequence (P13806 961-1106 partner limits assumed): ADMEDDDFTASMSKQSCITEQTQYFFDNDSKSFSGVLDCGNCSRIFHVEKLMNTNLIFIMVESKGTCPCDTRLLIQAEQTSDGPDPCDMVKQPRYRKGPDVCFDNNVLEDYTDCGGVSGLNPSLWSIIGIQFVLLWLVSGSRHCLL
T2 sequence (P19517 whole entry partner): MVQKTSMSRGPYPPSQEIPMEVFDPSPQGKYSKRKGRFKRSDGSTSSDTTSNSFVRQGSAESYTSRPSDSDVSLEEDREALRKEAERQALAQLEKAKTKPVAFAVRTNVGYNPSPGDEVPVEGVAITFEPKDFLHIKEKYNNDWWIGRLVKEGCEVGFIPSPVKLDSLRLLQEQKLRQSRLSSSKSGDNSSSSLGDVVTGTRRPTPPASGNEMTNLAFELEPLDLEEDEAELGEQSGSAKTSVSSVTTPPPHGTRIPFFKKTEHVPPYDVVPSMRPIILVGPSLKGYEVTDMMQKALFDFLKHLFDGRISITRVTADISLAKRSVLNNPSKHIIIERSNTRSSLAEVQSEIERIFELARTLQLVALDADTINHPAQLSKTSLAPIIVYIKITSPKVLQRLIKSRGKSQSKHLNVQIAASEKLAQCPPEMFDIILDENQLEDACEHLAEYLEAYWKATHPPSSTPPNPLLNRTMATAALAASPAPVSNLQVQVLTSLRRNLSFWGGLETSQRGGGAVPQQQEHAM
T2 sequence (P19518 whole entry partner): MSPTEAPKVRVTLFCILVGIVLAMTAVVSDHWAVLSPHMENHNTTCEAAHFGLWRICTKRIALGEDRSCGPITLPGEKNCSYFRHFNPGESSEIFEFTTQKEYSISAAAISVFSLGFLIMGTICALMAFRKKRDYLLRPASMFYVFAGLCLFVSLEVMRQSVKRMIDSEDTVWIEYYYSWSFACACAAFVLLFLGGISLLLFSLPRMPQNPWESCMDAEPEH

Regarding `C=CCc1ccccc1OCC(O)CNC(C)C` (centres unmarked) [Alprenolol], the IC50 on Beta adrenergic β is 2.1 nM.

In the case of `COc1ccc(CSC2CCN(Cc3cc(C(C)(C)C)c(O)c(C(C)(C)C)c3)CC2)c(OC)c1OC` [Example 13, 4-(2,3,4-trimethoxybenzylthio)-1-(3,5-di-tert.-butyl-4-hydroxybenzyl)piperidine], in the assay with cardiac cells [1], the “protection of cardiac cells with respect to oxidative necrosis (in words)” value is “markedly superior to the anti-oxidant reference products” and the inhibition at 1 µM was at least 50%. In addition, the activity at 10 µM in the assay on cardiac cells [1] (10^-5 M) amounted to 16.1 ± 5.6%. Besides, in the assay on cardiac cells [1] (10^-6 M), the activity at 1 µM stood at 52.4 ± 18.2%. For the same compound, the activity at 0.1 µM in the assay on cardiac cells [1] (10^-7 M) was 75.7 ± 19.7%. The IC50 in the assay on human LDL's was 3000 nM.

On to `COc1ccc(CSC2CCN(CCCOc3cc(C(C)(C)C)c(O)c(C(C)(C)C)c3)CC2)c(OC)c1OC` [Example 14, 4-(2,3,4-trimethoxybenzylthio)-1-[3-(3,5-di-tert.-butyl-4-hydroxyphenoxy)propyl]piperidine], for which, in the assay with human LDL's, the IC50 was 1000 nM.

Regarding `COc1ccc(CSC2CCN(CCCc3cc(C(C)(C)C)c(O)c(C(C)(C)C)c3)CC2)c(OC)c1OC` [Example 15, 4-(2,3,4-trimethoxybenzylthio)-1-[3-(3,5-di-tert.-butyl-4-hydroxyphenyl)propyl]piperidine], the IC50 in the assay with human LDL's turned out to be 3000 nM.

On to `COc1ccc(CSC2CCN(CC(O)CSc3cc(C(C)(C)C)c(O)c(C(C)(C)C)c3)CC2)c(OC)c1OC` (centres unmarked) [Example 16, 4-(2,3,4-trimethoxybenzylthio)-1-[3-(3,5-di-tert.-butyl-4-hydroxyphenylthio)-2-hydroxypropyl]piperidine], for which, in the assay with human LDL's, the IC50 was found to be 3000 nM.

With `COc1ccc(CSC2CCN(CC(O)COc3cc(C(C)(C)C)c(O)c(C(C)(C)C)c3)CC2)c(OC)c1OC` (centres unmarked) [Example 17, 4-(2,3,4-trimethoxybenzylthio)-1-[3-(3,5-di-tert.-butyl-4-hydroxyphenoxy)-2-hydroxypropyl]piperidine], the IC50 in the assay on human LDL's worked out at 2000 nM.

Consider `COc1ccc(CSC2CCN(CCCSc3cc(C(C)(C)C)c(O)c(C(C)(C)C)c3)CC2)c(OC)c1OC` [Example 18, 4-(2,3,4-trimethoxybenzylthio)-1-[3-(3,5-di-tert.butyl-4-hydroxyphenylthio)propyl]piperidine], for which the IC50 in the assay with human LDL's amounted to 2000 nM.

As to `COc1ccc(CSC2CCN(CCCOc3cc(C)c(O)c(C)c3C)CC2)c(OC)c1OC` [Example 19, 4-(2,3,4-trimethoxybenzylthio)-1-[3-(2,3,5-trimethyl-4-hydroxyphenoxy)propyl]piperidine], in the assay on cardiac cells [1], the “protection of cardiac cells with respect to oxidative necrosis (in words)” value was “markedly superior to the anti-oxidant reference products” and the inhibition at 1 µM was at least 50%. In addition, in the assay on cardiac cells [1] (10^-5 M), the activity at 10 µM stood at 7.9 ± 4.1%. The activity at 1 µM in the assay with cardiac cells [1] (10^-6 M) is 38.4 ± 13.7%. For the same compound, the activity at 0.1 µM in the assay on cardiac cells [1] (10^-7 M) came out at 86 ± 11.5%. Moreover, the “protection of human LDL's with respect to oxidative modification (in words)” value in the assay with human LDL's (copper sulphate) was “greater ability”. The IC50 in the assay on human LDL's amounted to 300 nM.

In the case of `COc1ccc(CSC2CCN(CCCCCSc3cc(C(C)(C)C)c(O)c(C(C)(C)C)c3)CC2)c(OC)c1OC` [Example 20, 4-(2,3,4-trimethoxybenzylthio)-1-[5-(3,5-di-tert.butyl-4-hydroxyphenylthio)pentyl]piperidine], in the assay with human LDL's, the IC50 is 1000 nM.

Regarding `COc1ccc(CSC2CCN(CCCCCOc3cc(C(C)(C)C)c(O)c(C(C)(C)C)c3)CC2)c(OC)c1OC` [Example 21, 4-(2,3,4-trimethoxybenzylthio)-1-[5-(3,5-di-tert.-butyl-4-hydroxyphenoxy)pentyl]piperidine], in the assay on human LDL's, the IC50 worked out at 800 nM.

For the compound `COc1cccc(CCN(C)CCCC(C#N)(c2ccc(OC)c(OC)c2)C(C)C)c1` (centres unmarked) [Example D888, reference compound], the IC50 at type L calcium channels [2] was found to be 2.5 nM; on type L Ca^2+ channel it was 23 nM.

In the case of `CC(C)(Sc1cc(C(C)(C)C)c(O)c(C(C)(C)C)c1)Sc1cc(C(C)(C)C)c(O)c(C(C)(C)C)c1` [Probucol, reference compound], in the assay on cardiac cells [1] (10^-5 M), the activity at 10 µM amounted to 68 ± 0.9%. The activity at 1 µM in the assay with cardiac cells [1] (10^-6 M) is 95 ± 1.7%. The IC50 with human LDL's turned out to be 3000 nM.

With `COc1ccc(CN2CCNCC2)c(OC)c1OC` [Trimetazidine, 2 HCl, trimetazidine dihydrochloride, reference compound], in the assay on cardiac cells [3] (setting [5]), the activity at 20 µM came out at 94.6%, the activity at 100 µM turned out to be 75.8% and the activity at 500 µM was 58.3%. The inhibition at 500 µM in the assay on cardiac cells [3] (read-out: protection of cell population subjected to intracellular acidosis) was 42%. Further, the IC50 on type L calcium channels [4] is over 100 µM. For the same compound, on type L calcium channels [2], the IC50 is over 100000 nM. Moreover, on Beta adrenergic β, the IC50 was over 100000 nM.

In the case of `COC(=O)[C@@H]1[C@H]2C[C@H]3c4[nH]c5ccccc5c4CCN3C[C@@H]2CC[C@@H]1O` [Yohimbine, reference compound], on Alpha adrenergic α2, the IC50 amounted to 31 nM.

For the compound vitamin E [reference compound], the necrosis index was determined as 54.9 ± 11.3 in the assay with cardiac cells [1] (10^-5 M, 10 µM); 87.6 ± 5.7 with cardiac cells [1] (10^-6 M, 1 µM); 97.1 ± 2.6 with cardiac cells [1] (10^-7 M, 0.1 µM). Moreover, the IC50 in the assay with human LDL's was over 100000 nM.
